These results are taken from patent publication US12275726B2, “Aurora kinase inhibitors and use thereof” (WIGEN BIOMEDICINE TECHNOLOGY (SHANGHAI) CO., LTD., priority 2019, dated 2025).

For test [1], the target named is T1, Aurora-A kinase (Homo sapiens, UniProt O14965).
T1 sequence (O14965 1-403): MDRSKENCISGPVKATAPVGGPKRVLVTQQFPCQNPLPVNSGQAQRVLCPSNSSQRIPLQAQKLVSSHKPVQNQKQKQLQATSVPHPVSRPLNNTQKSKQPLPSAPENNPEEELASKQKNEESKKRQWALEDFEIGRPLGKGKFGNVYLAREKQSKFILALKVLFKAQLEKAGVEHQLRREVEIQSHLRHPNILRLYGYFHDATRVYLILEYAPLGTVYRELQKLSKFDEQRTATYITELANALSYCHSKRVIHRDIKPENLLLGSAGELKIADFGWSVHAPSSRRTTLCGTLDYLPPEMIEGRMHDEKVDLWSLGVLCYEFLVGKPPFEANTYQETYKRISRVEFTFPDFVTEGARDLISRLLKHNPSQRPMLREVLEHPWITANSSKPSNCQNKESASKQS
Kind of test: Caliper Mobility Shift assay for inhibitory activity against aurora kinase (Aurora-A). It is filed as biochemical. The following applies: FAM-labeled polypeptide substrate, 25° C. The method, then:
(§1) The compounds were each subjected to gradient dilution from 10 μM to obtain a total of 10 concentrations. After the enzyme and kinase reaction solution (20 mM HEPES, pH 7.5, 0.01% Triton X-100) were mixed, the gradiently diluted compound was added. The mixture was incubate at room temperature for 10 min to allow the compound and enzyme to bind well. Then, FAM-labeled polypeptide was added as a substrate to carry out a kinase reaction at 25° C., and after a certain time, a stop solution was added.

Test [2] addresses Aurora-B kinase (Homo sapiens, UniProt Q96GD4). Kind of test: Caliper Mobility Shift assay for inhibitory activity against aurora kinase (Aurora-B). Particulars: FAM-labeled polypeptide substrate, 25° C. It is filed as biochemical. The procedure: as §1
Test [3] relates to human small cell lung cancer H69 cells. Kind of test: Anti-proliferation activity against H69 cells (ATP content, 72 h). It is filed as cell-based. The method, then: Tumor cells (human small cell lung cancer H69 cells) in logarithmic growth phase were seeded into a 384-well culture plate at 4×10^3 cells per well, 50 μL of medium was added to each well, and the mixtures were cultured overnight in a 37° C./5% CO2 incubator. After the cells adhered to the wall, the test compounds and the positive control drug at proper concentrations were each added, and five samples with different concentrations were prepared. A blank group was taken as a negative control group, and the resulting mixtures were cultured in an incubator for 72 h. 50 μL of CTL plus was then added to each well, and the number of cells was evaluated by measuring ATP content in the cells.

Test [4] relates to Human lung cancer H69 cells graft tumors. Kind of test: Anti-tumor activity in nude mice bearing H69 graft tumors. It is filed as in vivo. Particulars: for in vivo anti-tumor activity compared with the positive control LY-3295668: 20 mg/kg bid*21, H69 graft tumors in nude mice, statement in words; for Anti-tumor effect: 20 mg/kg, bid*21, intragastric, suspension in 0.5% CMC-Na, NCI-H69 graft tumors in nude mice. The method, then:
1×10^7 H69 cells were injected into the right dorsal side of each nude mouse, and the animals were randomly grouped for administration after tumors grew to 150 mm^3. […] On Tuesday and Thursday each week, tumor volumes and body weight of mice were measured, and the nude mice were sacrificed on day 21 of administration.

pIC50: −log10 of the molar value. Read-outs that look alike come from different tables or passages of the source. Bounds are passed on as bounds.

Aurora-B kinase, sequence (Q96GD4 whole entry): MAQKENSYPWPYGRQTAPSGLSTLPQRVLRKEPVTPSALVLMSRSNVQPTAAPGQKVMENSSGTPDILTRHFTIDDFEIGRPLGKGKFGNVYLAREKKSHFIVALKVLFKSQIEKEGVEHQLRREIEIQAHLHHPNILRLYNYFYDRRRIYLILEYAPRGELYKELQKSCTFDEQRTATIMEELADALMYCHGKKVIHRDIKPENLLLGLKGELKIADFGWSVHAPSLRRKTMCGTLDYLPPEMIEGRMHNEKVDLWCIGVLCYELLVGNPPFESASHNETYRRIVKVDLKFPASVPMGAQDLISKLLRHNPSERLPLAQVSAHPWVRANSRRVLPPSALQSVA

In the case of `COCC1CC(Cc2nc(Nc3cc(C)[nH]n3)ccc2F)(C(=O)O)CCN1Cc1cccc(Cl)c1F` (centres unmarked) [Compound 25, 1-(3-chloro-2-fluorobenzyl)-4-((3-fluoro-6-((5-methyl-1H-pyrazol-3-yl)amino)pyridin-2-yl)methyl)-2-(methoxymethyl)piperidine-4-carboxylic acid], the IC50 is 0.78 nM in test [1] and over 3000 nM in test [2]. Further, the negative logarithm of the IC50 (pIC50) in test [3] (Homo sapiens, NCI-H69, 72 h) was 7.01.

Turning to `COCC1CC(Cc2nc(Nc3nccs3)ccc2F)(C(=O)O)CCN1Cc1cccc(Cl)c1F` (centres unmarked) [Compound 6, 1-(3-chloro-2-fluorobenzyl)-4-((3-fluoro-6-(thiazol-2-ylamino)pyridin-2-yl)methyl)-2-(methoxymethyl)piperidine-4-carboxylic acid], in test [1], the IC50 amounted to 0.57 nM. The IC50 in test [2] came out at 78 nM. The same molecule gave a pIC50 in test [3] (Homo sapiens, NCI-H69, 72 h) of 7.31. Besides, in test [4], the “in vivo anti-tumor activity compared with the positive control LY-3295668” value is “significantly increased in vivo anti-tumor activity” and the Anti-tumor effect is recorded as 30% shrinking.

Take `CCC1CC(Cc2nc(Nc3nccs3)ccc2F)(C(=O)O)CCN1Cc1cccc(Cl)c1F` (centres unmarked) [Compound 29, 1-(3-chloro-2-fluorobenzyl)-2-ethyl-4-((3-fluoro-6-(thiazol-2-ylamino)pyridin-2-yl)methyl)piperidine-4-carboxylic acid]: the IC50 worked out at 1.3 nM in test [1] and 90 nM in test [2]. Moreover, in test [3] (Homo sapiens, NCI-H69, 72 h), the pIC50 was 7.62.

In the case of `COCC1CC(Cc2nc(Nc3ncc(C)s3)ccc2F)(C(=O)O)CCN1Cc1cccc(Cl)c1F` (centres unmarked) [Compound 23, 1-(3-chloro-2-fluorobenzyl)-4-((3-fluoro-6-(5-methylthiazol-2-ylamino)pyridin-2-yl)methyl)-2-(methoxymethyl)piperidine-4-carboxylic acid], the IC50 in test [1] is 0.57 nM; in test [2] it was 2470 nM. The same molecule gave a pIC50 in test [3] (Homo sapiens, NCI-H69, 72 h) of 7.24.

With `CCC1CC(Cc2nc(Nc3nccs3)ccc2F)(C(=O)O)CCN1Cc1cccc(Cl)c1F` (centres unmarked) [Compound 5, 1-(3-chloro-2-fluorobenzyl)-2-ethyl-4-((3-fluoro-6-(thiazol-2-ylamino)pyridin-2-yl)methyl)piperidine-4-carboxylic acid], the IC50 turned out to be 0.82 nM in test [1] and 140 nM in test [2]. This molecule had a negative logarithm of the IC50 (pIC50) in test [3] of 7.48. Further, the Anti-tumor effect in test [4] was 9% shrinking.

With `Cc1cnc(Nc2ccc(F)c(CC3(C(=O)O)CCN(Cc4cccc(Cl)c4F)C(C(F)(F)F)C3)n2)s1` (centres unmarked) [Compound 13, 1-(3-chloro-2-fluorobenzyl)-4-((3-fluoro-6-(5-methylthiazol-2-ylamino)pyridin-2-yl)methyl)-2-(trifluoromethyl)piperidine-4-carboxylic acid], the IC50 in test [1] turned out to be 0.64 nM; in test [2], 113 nM. Besides, in test [3] (Homo sapiens, NCI-H69, 72 h), the negative-log IC50 (pIC50) was 6.23.

As to `O=C(O)C1(Cc2nc(Nc3nccs3)ccc2F)CCN(Cc2cccc(Cl)c2F)C(C(F)(F)F)C1` (centres unmarked) [Compound 1, 1-(3-chloro-2-fluorobenzyl)-4-((3-fluoro-6-(thiazol-2-ylamino)pyridin-2-yl)methyl)-2-(trifluoromethyl)piperidine-4-carboxylic acid], the IC50 in test [1] amounted to 0.53 nM. Besides, the half-maximal inhibitory concentration (IC50) in test [2] amounted to 148 nM. Moreover, the pIC50 in test [3] (Homo sapiens, NCI-H69, 72 h) is 7.96. Also, in test [4], the “in vivo anti-tumor activity compared with the positive control LY-3295668” value was “significantly increased in vivo anti-tumor activity” and the Anti-tumor effect is recorded as 29% shrinking.

Regarding `Cc1cc(Nc2ccc(F)c(CC3(C(=O)O)CCN(Cc4cccc(Cl)c4F)C(C(F)(F)F)C3)n2)n[nH]1` (centres unmarked) [Compound 15, 1-(3-chloro-2-fluorobenzyl)-4-((3-fluoro-6-((5-methyl-1H-pyrazol-3-yl)amino)pyridin-2-yl)methyl)-2-(trifluoromethyl)piperidine-4-carboxylic acid], the half-inhibitory concentration (IC50) is 0.62 nM in test [1] and 1490 nM in test [2]. This molecule showed a pIC50 in test [3] (Homo sapiens, NCI-H69, 72 h) of 6.11.

`O=C(O)C1(Cc2nc(Nc3nccs3)ccc2F)CCN(Cc2cccc(Cl)c2F)C(CF)C1` (centres unmarked) [Compound 11, 1-(3-chloro-2-fluorobenzyl)-4-((3-fluoro-6-(thiazol-2-ylamino)pyridin-2-yl)methyl)-2-(fluoromethyl)piperidine-4-carboxylic acid]: the half-maximal inhibitory concentration (IC50) was 2.4 nM in test [1] and 128 nM in test [2]. The molecule also gave a negative-log IC50 (pIC50) in test [3] (Homo sapiens, NCI-H69, 72 h) of 7.72.

Consider `CCC1CC(Cc2nc(Nc3cc(C)[nH]n3)ccc2F)(C(=O)O)CCN1Cc1cccc(Cl)c1F` (centres unmarked) [Compound 19, 1-(3-chloro-2-fluorobenzyl)-2-ethyl-4-((3-fluoro-6-((5-methyl-1H-pyrazol-3-yl)amino)pyridin-2-yl)methyl)piperidine-4-carboxylic acid], for which the results for the IC50 in test [1] and in test [2] were 3.1 nM and over 3000 nM, respectively. This molecule gave a pIC50 in test [3] (Homo sapiens, NCI-H69, 72 h) of 6.66.

As to `CCOCC1CC(Cc2nc(Nc3nccs3)ccc2F)(C(=O)O)CCN1Cc1cccc(Cl)c1F` (centres unmarked) [Compound 7, 1-(3-chloro-2-fluorobenzyl)-2-(ethoxymethyl)-4-((3-fluoro-6-(thiazol-2-ylamino)pyridin-2-yl)methyl)piperidine-4-carboxylic acid], the IC50 in test [1] worked out at 0.74 nM; in test [2], 286 nM. Moreover, in test [3] (Homo sapiens, NCI-H69, 72 h), the pIC50 was 7.28.
